This note sets out measurements from paper PMC5218480 (PLoS ONE, 2017).

The experiment relates to MV-4-11 cells. Briefly: Gene expression microarray analysis (Affymetrix PrimeView) and GSEA. Particulars: ProbeSet 11724763_s_at; LIST D. Also noted: RFU PODN (11730768_x_at) / Fold change /veh PODN (11730768_x_at) / RFU LINC00158 (11744669_a_at) / Fold change /veh LINC00158 (11744669_a_at) / RFU DUSP10 (11751237_a_at) / Fold change /veh DUSP10 (11751237_a_at) / RFU ID3 (11757404_x_at) / Fold change /veh ID3 (11757404_x_at) / RFU PLEKHG5 (11737974_s_at) / Fold change /veh PLEKHG5 (11737974_s_at) / RFU LRRC4B (11730491_at) / Fold change /veh LRRC4B (11730491_at) / RFU GIMAP4 (11747438_a_at) / Fold change /veh GIMAP4 (11747438_a_at) / RFU KRT8 (11758183_x_at) / Fold change /veh KRT8 (11758183_x_at) / RFU CNN1 (11734310_a_at) / Fold change /veh CNN1 (11734310_a_at) / RFU VPS37D (11726825_at) / Fold change /veh VPS37D (11726825_at) / RFU C10orf10 (11716522_x_at) / Fold change /veh C10orf10 (11716522_x_at) / RFU KIR2DL2 /// KIR2DL4 /// KIR2DL5A /// KIR2DL5B /// KIR2DS1 /// KIR2DS2 /// KIR2DS3 /// KIR2DS4 /// KIR3DL3 /// KIR3DL3 /// KIR3DS1 (11738374_at) / Fold change /veh KIR2DL2 /// KIR2DL4 /// KIR2DL5A /// KIR2DL5B /// KIR2DS1 /// KIR2DS2 /// KIR2DS3 /// KIR2DS4 /// KIR3DL3 /// KIR3DL3 /// KIR3DS1 (11738374_at) / RFU C1QL1 (11718748_at) / Fold change /veh C1QL1 (11718748_at) / RFU TMPRSS4 (11747572_a_at) / Fold change /veh TMPRSS4 (11747572_a_at) / RFU HAMP (11756126_x_at) / Fold change /veh HAMP (11756126_x_at) / RFU RNFT2 (11725882_a_at) / Fold change /veh RNFT2 (11725882_a_at) / RFU NR4A2 (11747474_a_at) / Fold change /veh NR4A2 (11747474_a_at) / RFU ABCC12 (11746883_a_at) / Fold change /veh ABCC12 (11746883_a_at) / RFU TMEM136 (11760407_x_at) / Fold change /veh TMEM136 (11760407_x_at) / RFU CLDN22 /// WWC2 (11732394_at) / Fold change /veh CLDN22 /// WWC2 (11732394_at) / RFU HLA-DPB1 (11760878_x_at) / Fold change /veh HLA-DPB1 (11760878_x_at) / RFU SPINT1 (11716480_a_at) / Fold change /veh SPINT1 (11716480_a_at) / RFU GAP43 (11754022_s_at) / Fold change /veh GAP43 (11754022_s_at) / RFU A4GNT (11735810_at) / Fold change /veh A4GNT (11735810_at) / RFU PRB3 (11715151_x_at) / Fold change /veh PRB3 (11715151_x_at) / RFU TUBB4B (11761932_at) / Fold change /veh TUBB4B (11761932_at) / RFU CAPN14 (11732068_a_at) / Fold change /veh CAPN14 (11732068_a_at) / RFU TMCC2 (11721928_a_at) / Fold change /veh TMCC2 (11721928_a_at) / RFU IRGQ (11745062_a_at) / Fold change /veh IRGQ (11745062_a_at) / RFU FAM174B (11720279_a_at) / Fold change /veh FAM174B (11720279_a_at) / RFU TMPRSS4 (11748680_a_at) / Fold change /veh TMPRSS4 (11748680_a_at) / RFU FAM212B (11763350_a_at) / Fold change /veh FAM212B (11763350_a_at) / RFU PLEKHG5 (11743358_a_at) / Fold change /veh PLEKHG5 (11743358_a_at) / RFU ZSCAN30 (11745921_a_at) / Fold change /veh ZSCAN30 (11745921_a_at) / RFU CMKLR1 (11741424_a_at) / Fold change /veh CMKLR1 (11741424_a_at) / RFU LOC101060620 /// MAPK8IP1 (11723275_at) / Fold change /veh LOC101060620 /// MAPK8IP1 (11723275_at) / RFU SPTSSB (11747773_x_at) / Fold change /veh SPTSSB (11747773_x_at) / RFU PRSS12 (11739890_at) / Fold change /veh PRSS12 (11739890_at) / RFU BIN1 (11741810_x_at) / Fold change /veh BIN1 (11741810_x_at) / RFU WNT11 (11732464_a_at) / Fold change /veh WNT11 (11732464_a_at) / RFU C10orf10 (11716521_a_at) / Fold change /veh C10orf10 (11716521_a_at) / RFU C5orf56 (11738089_at) / Fold change /veh C5orf56 (11738089_at) / RFU CYB561 (11721691_x_at) / Fold change /veh CYB561 (11721691_x_at) / RFU ANKRD19P (11752326_a_at) / Fold change /veh ANKRD19P (11752326_a_at) / RFU OR2T12 /// OR2T33 /// OR2T8 (11738714_s_at) / Fold change /veh OR2T12 /// OR2T33 /// OR2T8 (11738714_s_at) / RFU VCAN (11748164_a_at) / Fold change /veh VCAN (11748164_a_at) / RFU JSRP1 (11732532_at) / Fold change /veh JSRP1 (11732532_at) / RFU KRTAP10-11 (11738290_x_at) / Fold change /veh KRTAP10-11 (11738290_x_at) / RFU MYO3A (11730013_a_at) / Fold change /veh MYO3A (11730013_a_at) / RFU EBF3 (11725865_a_at) / Fold change /veh EBF3 (11725865_a_at) / RFU CAMK2N1 (11719241_x_at) / Fold change /veh CAMK2N1 (11719241_x_at) / RFU C5orf56 (11738088_a_at) / Fold change /veh C5orf56 (11738088_a_at) / RFU OLFML3 (11715873_a_at) / Fold change /veh OLFML3 (11715873_a_at) / RFU LOC100653217 /// NTM (11731650_a_at) / Fold change /veh LOC100653217 /// NTM (11731650_a_at) / RFU MAPK11 (11762145_a_at) / Fold change /veh MAPK11 (11762145_a_at) / RFU FIZ1 (11724087_x_at) / Fold change /veh FIZ1 (11724087_x_at) / RFU OASL (11726364_x_at) / Fold change /veh OASL (11726364_x_at) / RFU SOX15 (11748057_x_at) / Fold change /veh SOX15 (11748057_x_at) / RFU CD79A (11719716_a_at) / Fold change /veh CD79A (11719716_a_at) / RFU HIST1H1D (11736915_at) / Fold change /veh HIST1H1D (11736915_at) / RFU CASKIN2 (11723855_a_at) / Fold change /veh CASKIN2 (11723855_a_at) / RFU LOC730098 (11760151_x_at) / Fold change /veh LOC730098 (11760151_x_at) / RFU OR4N2 (11742367_at) / Fold change /veh OR4N2 (11742367_at) / RFU PRRT2 (11749266_a_at) / Fold change /veh PRRT2 (11749266_a_at) / RFU SNX32 (11753110_a_at) / Fold change /veh SNX32 (11753110_a_at) / RFU CDHR5 (11726645_a_at) / Fold change /veh CDHR5 (11726645_a_at) / RFU RCAN1 (11760418_a_at) / Fold change /veh RCAN1 (11760418_a_at) / RFU FAM167A (11723789_a_at) / Fold change /veh FAM167A (11723789_a_at) / RFU FAM26E (11764081_at) / Fold change /veh FAM26E (11764081_at) / RFU ISYNA1 (11749810_s_at) / Fold change /veh ISYNA1 (11749810_s_at) / RFU ACY1 (11761880_at) / Fold change /veh ACY1 (11761880_at) / RFU 11764098_at / Fold change /veh 11764098_at / RFU SAMD14 (11745864_x_at) / Fold change /veh SAMD14 (11745864_x_at) / RFU NPB (11741838_a_at) / Fold change /veh NPB (11741838_a_at) / RFU TMPRSS6 (11731388_a_at) / Fold change /veh TMPRSS6 (11731388_a_at) / RFU KRTAP10-2 (11738614_at) / Fold change /veh KRTAP10-2 (11738614_at) / RFU ARHGAP8 /// PRR5-ARHGAP8 (11727945_x_at) / Fold change /veh ARHGAP8 /// PRR5-ARHGAP8 (11727945_x_at) / RFU KRTAP5-7 /// NADSYN1 (11734609_at) / Fold change /veh KRTAP5-7 /// NADSYN1 (11734609_at) / RFU RASL12 (11751679_a_at) / Fold change /veh RASL12 (11751679_a_at) / RFU CDKN2B (11736163_a_at) / Fold change /veh CDKN2B (11736163_a_at) / RFU PRF1 (11729649_at) / Fold change /veh PRF1 (11729649_at) / RFU, ZNF638 /// ZNF638-IT1 / Fold change vs veh, ZNF638 /// ZNF638-IT1 / RFU, PANK3 / Fold change vs veh, PANK3 / RFU, SH3YL1 / Fold change vs veh, SH3YL1 / RFU, ZEB2 / Fold change vs veh, ZEB2 / RFU, NRIP1 / Fold change vs veh, NRIP1 / RFU, PTTG1IP / Fold change vs veh, PTTG1IP / RFU, CAPN2 / Fold change vs veh, CAPN2 / RFU, MED14 / Fold change vs veh, MED14 / RFU, SNORA58 / Fold change vs veh, SNORA58 / RFU, C1orf63 / Fold change vs veh, C1orf63 / RFU, LRRFIP1 / Fold change vs veh, LRRFIP1 / RFU, NDUFAF7 / Fold change vs veh, NDUFAF7 / RFU, SLC12A2 / Fold change vs veh, SLC12A2 / RFU, IBTK / Fold change vs veh, IBTK / RFU, ESF1 / Fold change vs veh, ESF1 / Fold change vs veh, TMEM50B / RFU, TAOK1 / Fold change vs veh, TAOK1 / RFU, ACBD3 / Fold change vs veh, ACBD3 / RFU, TMA16 / Fold change vs veh, TMA16 / RFU, RWDD3 / Fold change vs veh, RWDD3 / RFU, BCAT1 / Fold change vs veh, BCAT1 / RFU, EDEM3 / Fold change vs veh, EDEM3 / RFU, TMEM33 / Fold change vs veh, TMEM33 / RFU, WDR75 / Fold change vs veh, WDR75 / RFU, AHCTF1 / Fold change vs veh, AHCTF1 / RFU, TFRC / Fold change vs veh, TFRC / RFU, ZDHHC17 / Fold change vs veh, ZDHHC17 / RFU, NOM1 / Fold change vs veh, NOM1 / RFU, ARL8B / Fold change vs veh, ARL8B / RFU, ZBTB11 / Fold change vs veh, ZBTB11 / RFU, TAMM41 / Fold change vs veh, TAMM41 / RFU, KIAA1704 /// LOC100996395 / Fold change vs veh, KIAA1704 /// LOC100996395 / RFU, ING1 / Fold change vs veh, ING1 / RFU, TRMT61B / Fold change vs veh, TRMT61B / RFU, FUBP3 / Fold change vs veh, FUBP3 / RFU, TP53 / Fold change vs veh, TP53 / RFU, TNKS2 / Fold change vs veh, TNKS2 / RFU, ZFP14 / Fold change vs veh, ZFP14 / RFU, ACTR2 / Fold change vs veh, ACTR2 / RFU, PPP3R1 / Fold change vs veh, PPP3R1 / RFU, PIK3R1 / Fold change vs veh, PIK3R1 / RFU, HNRNPA1 / Fold change vs veh, HNRNPA1 / RFU, RNF170 / Fold change vs veh, RNF170 / RFU, ZNF28 / Fold change vs veh, ZNF28 / RFU, RNGTT / Fold change vs veh, RNGTT / RFU, OGT / Fold change vs veh, OGT / RFU, BRD1 / Fold change vs veh, BRD1 / RFU, MARS / Fold change vs veh, MARS / RFU, ZNF655 / Fold change vs veh, ZNF655 / RFU, FAHD1 / Fold change vs veh, FAHD1 / RFU, BDP1 / Fold change vs veh, BDP1 / RFU, LRRCC1 / Fold change vs veh, LRRCC1 / RFU, ARID1A / Fold change vs veh, ARID1A / RFU, ZNF146 / Fold change vs veh, ZNF146 / RFU, ZNF330 / Fold change vs veh, ZNF330 / RFU, GPN3 / Fold change vs veh, GPN3 / RFU, C9orf123 / Fold change vs veh, C9orf123 / RFU, N4BP2L2 / Fold change vs veh, N4BP2L2 / RFU, ARFIP1 / Fold change vs veh, ARFIP1 / RFU, FAM179B / Fold change vs veh, FAM179B / RFU, BCL10 / Fold change vs veh, BCL10 / RFU, UHRF1BP1L / Fold change vs veh, UHRF1BP1L / RFU, BET1 / Fold change vs veh, BET1 / RFU, CNOT2 / Fold change vs veh, CNOT2 / RFU, ZNF268 / Fold change vs veh, ZNF268 / Fold change vs veh, ZNF507 / RFU, DGCR2 / Fold change vs veh, DGCR2 / RFU, WDSUB1 / Fold change vs veh, WDSUB1 / Fold change vs veh, HSP90B1 /// MIR3652 / RFU, ADSS / Fold change vs veh, ADSS / RFU, GK / Fold change vs veh, GK / RFU, ZNF148 / Fold change vs veh, ZNF148 / RFU, TAF9 / Fold change vs veh, TAF9 / RFU, SLC1A5 / Fold change vs veh, SLC1A5 / RFU, SLMO2 / Fold change vs veh, SLMO2 / RFU, ABCC4 / Fold change vs veh, ABCC4 / RFU, LOC101060439 /// RAP1B / Fold change vs veh, LOC101060439 /// RAP1B / RFU, RFX7 / Fold change vs veh, RFX7 / RFU, GTPBP10 / Fold change vs veh, GTPBP10 / RFU, CNEP1R1 / Fold change vs veh, CNEP1R1 / RFU, BIVM-ERCC5 /// ERCC5 / Fold change vs veh, BIVM-ERCC5 /// ERCC5 / RFU, ILF3 / Fold change vs veh, ILF3 / RFU 11762660_at / Fold change /veh 11762660_at / RFU VCAN (11757783_s_at) / Fold change /veh VCAN (11757783_s_at) / RFU DDX43 (11728927_at) / Fold change /veh DDX43 (11728927_at) / RFU KRT8 (11758188_x_at) / Fold change /veh KRT8 (11758188_x_at) / RFU NKD1 (11759106_at) / Fold change /veh NKD1 (11759106_at) / RFU SRD5A1 (11742802_a_at) / Fold change /veh SRD5A1 (11742802_a_at) / RFU TPSAB1 /// TPSB2 (11721975_s_at) / Fold change /veh TPSAB1 /// TPSB2 (11721975_s_at) / RFU GSTM3 (11746129_a_at) / Fold change /veh GSTM3 (11746129_a_at) / RFU IL23R (11737362_x_at) / Fold change /veh IL23R (11737362_x_at) / RFU TMEM51 (11727254_a_at) / Fold change /veh TMEM51 (11727254_a_at) / RFU PIWIL2 (11732686_x_at) / Fold change /veh PIWIL2 (11732686_x_at) / RFU ORM1 (11744905_x_at) / Fold change /veh ORM1 (11744905_x_at) / RFU CCDC152 (11743942_at) / Fold change /veh CCDC152 (11743942_at) / RFU ECM1 (11717891_a_at) / Fold change /veh ECM1 (11717891_a_at) / RFU IL23R (11748794_a_at) / Fold change /veh IL23R (11748794_a_at) / RFU TNFAIP8L3 (11732012_x_at) / Fold change /veh TNFAIP8L3 (11732012_x_at) / RFU MBOAT4 (11741988_at) / Fold change /veh MBOAT4 (11741988_at) / RFU 11764193_at / Fold change /veh 11764193_at / RFU TMEM53 (11763286_at) / Fold change /veh TMEM53 (11763286_at) / RFU MAGEB2 (11727129_at) / Fold change /veh MAGEB2 (11727129_at) / RFU TMEM200A (11744735_a_at) / Fold change /veh TMEM200A (11744735_a_at) / RFU CCDC152 (11751479_a_at) / Fold change /veh CCDC152 (11751479_a_at) / RFU FAM211A (11726209_a_at) / Fold change /veh FAM211A (11726209_a_at) / RFU RGS16 (11746705_a_at) / Fold change /veh RGS16 (11746705_a_at) / RFU VCAN (11755009_s_at) / Fold change /veh VCAN (11755009_s_at) / RFU RHOB (11743442_s_at) / Fold change /veh RHOB (11743442_s_at) / RFU RGS16 (11720943_a_at) / Fold change /veh RGS16 (11720943_a_at) / RFU RGS16 (11720944_at) / Fold change /veh RGS16 (11720944_at) / RFU, VPS4B / Fold change vs veh, VPS4B / RFU, CREB1 / Fold change vs veh, CREB1 / RFU, DNAJC13 / Fold change vs veh, DNAJC13 / RFU, GNAQ / Fold change vs veh, GNAQ / RFU, CDK5R1 / Fold change vs veh, CDK5R1 / RFU, ZRANB3 / Fold change vs veh, ZRANB3 / RFU, CUL4A / Fold change vs veh, CUL4A / RFU, CCNY / Fold change vs veh, CCNY / RFU, UFL1 / Fold change vs veh, UFL1 / RFU, COG3 / Fold change vs veh, COG3 / RFU, DIAPH2 / Fold change vs veh, DIAPH2 / RFU, SKA2 / Fold change vs veh, SKA2 / RFU, AFF3 / Fold change vs veh, AFF3 / RFU, LMF1 / Fold change vs veh, LMF1 / RFU, IPO11 / Fold change vs veh, IPO11 / RFU, DFFB / Fold change vs veh, DFFB / RFU, FOXP1 / Fold change vs veh, FOXP1 / RFU, CARD8 / Fold change vs veh, CARD8 / RFU, STRN3 / Fold change vs veh, STRN3 / RFU, ADK / Fold change vs veh, ADK / RFU, RASSF2 / Fold change vs veh, RASSF2 / RFU, WIPF1 / Fold change vs veh, WIPF1 / RFU, LARP1B / Fold change vs veh, LARP1B / RFU, RASA1 / Fold change vs veh, RASA1 / RFU, RB1 / Fold change vs veh, RB1 / RFU, PPFIA1 / Fold change vs veh, PPFIA1 / RFU, MAT2A / Fold change vs veh, MAT2A / RFU, CCT5 / Fold change vs veh, CCT5 / RFU, WDR92 / Fold change vs veh, WDR92 / RFU, CUX1 / Fold change vs veh, CUX1 / RFU, TTC7A / Fold change vs veh, TTC7A / RFU, TMEM135 / Fold change vs veh, TMEM135 / RFU, DEPTOR / Fold change vs veh, DEPTOR / RFU, CPM / Fold change vs veh, CPM / RFU, DNAJB6 / Fold change vs veh, DNAJB6 / RFU, CACNA2D3 / Fold change vs veh, CACNA2D3 / RFU, DTX4 / Fold change vs veh, DTX4 / RFU, TFCP2 / Fold change vs veh, TFCP2 / RFU, GMCL1 /// GMCL1P1 / Fold change vs veh, GMCL1 /// GMCL1P1 / RFU, AEBP2 / Fold change vs veh, AEBP2 / RFU, SNHG1 /// SNORD22 /// SNORD25 /// SNORD26 /// SNORD27 /// SNORD28 /// SNORD29 /// SNORD31 / Fold change vs veh, SNHG1 /// SNORD22 /// SNORD25 /// SNORD26 /// SNORD27 /// SNORD28 /// SNORD29 /// SNORD31 / Fold change (Aza/veh), C12orf56 (ProbeSet 11735607_a_at) / Fold change (ACY-1035/veh), C12orf56 (ProbeSet 11735607_a_at) / Fold change (Aza/veh), FGFR1OP (ProbeSet 11751329_s_at) / Fold change (ACY-1035/veh), FGFR1OP (ProbeSet 11751329_s_at) / Fold change (Aza/veh), VPS36 (ProbeSet 11739960_a_at) / Fold change (ACY-1035/veh), VPS36 (ProbeSet 11739960_a_at) / RFU SYPL1 (11715823_x_at) / Fold change /veh SYPL1 (11715823_x_at) / RFU IGFBP7 (11715501_s_at) / Fold change /veh IGFBP7 (11715501_s_at) / RFU REEP3 (11722064_at) / Fold change /veh REEP3 (11722064_at) / RFU IGLL1 (11728026_x_at) / Fold change /veh IGLL1 (11728026_x_at): dose or concentration left out as unconfirmed. It counts as cell-based, human.

On to `Nc1ccc(-c2cccs2)cc1NC(=O)c1ccc2c(c1)cc(C1CC1)n2CCN1CCOCC1` [ACY-1035], for which the “Fold change vs veh, DEPTOR” value is 0.84.
